Among the data in PubChem BioAssay AID328 (DTP/NCI, 2004) are T/C values, retold here.

The test has as its system BDF1 mice, P388 leukemia ip, median survival T/C. The test is described as follows: NCI In Vivo Anticancer Drug Screen. Data for tumor model P388 Leukemia (intraperitoneal) in B6D2F1 (BDF1) mice. To be noted: endpoint: median survival time, higher = longer survival. In outline:
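Read-out is survival of treated animals expressed relative to the vehicle group, as a T/C ratio.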

Where [1] appears, read: dose: 100.0 mg/kg/injection, schedule: Q01DX009 (ip), vehicle: saline with Tween-80.
[2] abbreviates: dose: 100.0 mg/kg/injection, schedule: Q04DX003 (ip), vehicle: saline.

Several values for one entry are separate records, joined by “and”; a condition that tells them apart may be missing. Equal entries are not always repeated. Inconclusive results and toxic doses are left out.

With `C=C(C)C(=O)O[C@H]1CC2=C[C@@H](C[C@@]3(C)O[C@@H]3[C@H]3OC(=O)C(=C)[C@@H]31)OC2=O`, the T/C was 113 % of control (dose: 2.2 mg/kg/injection, schedule: Q01DX010 (ip), vehicle: carboxymethylcellulose (CMC)); 109 % of control (dose: 2.5 mg/kg/injection, schedule: Q01DX009 (ip), vehicle: saline + alcohol); 118 % of control (dose: 3.3 mg/kg/injection, schedule: Q01DX010 (ip), vehicle: carboxymethylcellulose (CMC)); 113 % of control (dose: 5.0 mg/kg/injection, schedule: Q01DX010 (ip), vehicle: carboxymethylcellulose (CMC)); 152 % of control (dose: 7.5 mg/kg/injection, schedule: Q01DX010 (ip), vehicle: carboxymethylcellulose (CMC)); 118 % of control (dose: 7.5 mg/kg/injection, schedule: Q01DX010 (ip), vehicle: saline). Besides, the T/C was 120 % of control (dose: 10.0 mg/kg/injection, schedule: Q01DX009 (ip), vehicle: saline); 157 % of control (dose: 15.0 mg/kg/injection, schedule: Q01DX010 (ip), vehicle: carboxymethylcellulose (CMC)); 109 % of control (dose: 15.0 mg/kg/injection, schedule: Q01DX010 (ip), vehicle: saline); 122 % of control (dose: 20.0 mg/kg/injection, schedule: Q01DX009 (ip), vehicle: saline + alcohol); 115 % of control (dose: 30.0 mg/kg/injection, schedule: Q01DX010 (ip), vehicle: carboxymethylcellulose (CMC)); 118 % of control (dose: 30.0 mg/kg/injection, schedule: Q01DX010 (ip), vehicle: saline). Also, the T/C is 160 % of control (dose: 40.0 mg/kg/injection, schedule: Q01DX009 (ip), vehicle: saline) and 90 % of control (dose: 60.0 mg/kg/injection, schedule: Q01DX010 (ip), vehicle: saline).

Consider `C[C@]12CC[C@@H]3c4ccc(OC(=O)Cc5ccc(N(CCCl)CCCl)cc5)cc4CC[C@H]3[C@@H]1CC[C@@H]2OC(=O)Cc1ccc(N(CCCl)CCCl)cc1`, for which the T/C is 95 % of control and 105 % of control (dose: 64.0 mg/kg/injection, schedule: Q01DX009 (ip), vehicle: Klucel (hydroxypropylcellulose) (HPC)); 118 % of control under setting [1]; 98 % of control and 123 % of control (dose: 128.0 mg/kg/injection, schedule: Q01DX009 (ip), vehicle: Klucel (hydroxypropylcellulose) (HPC)); 111 % of control (dose: 256.0 mg/kg/injection, schedule: Q01DX009 (ip), vehicle: Klucel (hydroxypropylcellulose) (HPC)); 108 % of control (dose: 264.0 mg/kg/injection, schedule: Q04DX003 (ip), vehicle: saline with Tween-80); 200 % of control (dose: 400.0 mg/kg/injection, schedule: Q01DX009 (ip), vehicle: saline with Tween-80). For the same compound, the T/C reads like this: (dose: 400.0 mg/kg/injection, schedule: Q04DX003 (ip), vehicle: saline with Tween-80) 112 % of control; (dose: 512.0 mg/kg/injection, schedule: Q01DX009 (ip), vehicle: Klucel (hydroxypropylcellulose) (HPC)) 195 % of control.

In the case of `Cc1csc2nc(-c3ccccc3)nc(Cl)c12`, the T/C by setting is: (dose: 75.0 mg/kg/injection, schedule: Q04DX003 (ip), vehicle: saline sonified) 105 % of control; (dose: 150.0 mg/kg/injection, schedule: Q04DX003 (ip), vehicle: saline sonified) 120 % of control; (dose: 300.0 mg/kg/injection, schedule: Q04DX003 (ip), vehicle: saline sonified) 110 % of control.

Take `CCCCCCCCCCOP(N)(=O)OCCCCCCCCCC`: the T/C is 115 % of control (dose: 25.0 mg/kg/injection, schedule: Q04DX003 (ip), vehicle: saline); 90 % of control (dose: 50.0 mg/kg/injection, schedule: Q01DX009 (ip), vehicle: saline with Tween-80); 110 % of control (dose: 50.0 mg/kg/injection, schedule: Q04DX003 (ip), vehicle: saline); 86 % of control under setting [1]; 95 % of control (dose: 100.0 mg/kg/injection, schedule: Q04DX003 (ip), vehicle: saline with Tween-80); 110 % of control under setting [2]. The T/C is 110 % of control (dose: 150.0 mg/kg/injection, schedule: Q04DX003 (ip), vehicle: saline); 95 % of control (dose: 200.0 mg/kg/injection, schedule: Q04DX003 (ip), vehicle: saline with Tween-80); 105 % of control (dose: 225.0 mg/kg/injection, schedule: Q04DX003 (ip), vehicle: saline).

Take `Nc1ncn(C2CC(O)C(CO)O2)c(=O)n1` (configuration not stated): the T/C (dose: 0.03 mg/kg/injection, schedule: Q01DX009 (ip), vehicle: saline) was 119 % of control; the T/C (dose: 0.05 mg/kg/injection, schedule: Q01DX009 (ip), vehicle: saline) is 121 % of control; the T/C (dose: 0.1 mg/kg/injection, schedule: Q01DX009 (ip), vehicle: Klucel (hydroxypropylcellulose) (HPC)) was 190 % of control; the T/C (dose: 0.2 mg/kg/injection, schedule: Q01DX009 (ip), vehicle: Klucel (hydroxypropylcellulose) (HPC)) was 160 % of control and 206 % of control; the T/C (dose: 0.4 mg/kg/injection, schedule: Q01DX009 (ip), vehicle: Klucel (hydroxypropylcellulose) (HPC)) was 175 % of control and 190 % of control; the T/C (dose: 0.4 mg/kg/injection, schedule: Q01DX009 (ip), vehicle: saline) is 150 % of control. For the same compound, the T/C (dose: 0.8 mg/kg/injection, schedule: Q01DX009 (ip), vehicle: Klucel (hydroxypropylcellulose) (HPC)) was 109 % of control and 212 % of control; the T/C (dose: 0.8 mg/kg/injection, schedule: Q01DX009 (ip), vehicle: saline) is 188 % of control; the T/C (dose: 1.56 mg/kg/injection, schedule: Q01DX009 (ip), vehicle: saline) is 106 % of control; the T/C (dose: 3.12 mg/kg/injection, schedule: Q01DX009 (ip), vehicle: saline) was 94 % of control; the T/C (dose: 3.12 mg/kg/injection, schedule: Q04DX003 (ip), vehicle: saline) is 235 % of control; the T/C (dose: 6.25 mg/kg/injection, schedule: Q01DX009 (ip), vehicle: saline) is 90 % of control. The T/C (dose: 6.25 mg/kg/injection, schedule: Q04DX003 (ip), vehicle: saline) is 265 % of control and the T/C (dose: 12.5 mg/kg/injection, schedule: Q04DX003 (ip), vehicle: saline) is 160 % of control.

Turning to `O=C(Nc1ccc(S(=O)(=O)Nc2ccc(N=Nc3ccccc3)cc2)cc1)C(SC1=NC=NC2=NC=NC21)SC1=NC=NC2=NC=NC21` (configuration not stated), the T/C under setting [2] was 95 % of control; the T/C (dose: 200.0 mg/kg/injection, schedule: Q04DX003 (ip), vehicle: saline) is 105 % of control; the T/C (dose: 400.0 mg/kg/injection, schedule: Q04DX003 (ip), vehicle: saline) is 115 % of control.

Regarding `BrCc1ccc2c3c(ccc(CBr)c13)CC2`, the T/C is, setting by setting: (dose: 0.92 mg/kg/injection, schedule: Q04DX003 (ip), vehicle: saline) 113 % of control; (dose: 3.1 mg/kg/injection, schedule: Q04DX003 (ip), vehicle: saline) 120 % of control; (dose: 17.0 mg/kg/injection, schedule: Q04DX003 (ip), vehicle: Klucel (hydroxypropylcellulose) (HPC)) 154 % of control; (dose: 25.0 mg/kg/injection, schedule: Q01DX009 (ip), vehicle: Klucel (hydroxypropylcellulose) (HPC)) 118 % of control; (dose: 75.0 mg/kg/injection, schedule: Q01DX009 (ip), vehicle: Klucel (hydroxypropylcellulose) (HPC)) 118 % of control; (dose: 100.0 mg/kg/injection, schedule: Q01DX009 (ip), vehicle: Klucel (hydroxypropylcellulose) (HPC)) 95 % of control. Further, the T/C runs as follows: (dose: 100.0 mg/kg/injection, schedule: Q04DX003 (ip), vehicle: Klucel (hydroxypropylcellulose) (HPC)) 150 % of control; (dose: 200.0 mg/kg/injection, schedule: Q04DX003 (ip), vehicle: Klucel (hydroxypropylcellulose) (HPC)) 154 % of control; (dose: 300.0 mg/kg/injection, schedule: Q04DX003 (ip), vehicle: Klucel (hydroxypropylcellulose) (HPC)) 87 % of control and 100 % of control; (dose: 300.0 mg/kg/injection, schedule: Q04DX003 (ip), vehicle: saline) 118 % of control; (dose: 400.0 mg/kg/injection, schedule: Q04DX003 (ip), vehicle: Klucel (hydroxypropylcellulose) (HPC)) 122 % of control.

On to `OC1CCCC2CCC[N-]C12.OC1CCCC2CCC[N-]C12.[Mn+2]` (configuration not stated), for which the T/C by setting is: (dose: 6.25 mg/kg/injection, schedule: Q01DX009 (ip), vehicle: DMSO) 107 % of control; (dose: 12.5 mg/kg/injection, schedule: Q01DX009 (ip), vehicle: DMSO) 110 % of control; (dose: 25.0 mg/kg/injection, schedule: Q01DX009 (ip), vehicle: DMSO) 108 % of control; (dose: 50.0 mg/kg/injection, schedule: Q01DX009 (ip), vehicle: DMSO) 123 % of control; (dose: 100.0 mg/kg/injection, schedule: Q01DX009 (ip), vehicle: DMSO) 100 % of control.
